# Key:
# BDNF = experiment: Brain BDNF by ELISA after i.v. bryostatin dosing regimens; assay type: in vivo, mice; conditions: for BDNF (% of Control): mouse brain, 24 h after last dose
# Procedure: FIG. 2 illustrates the increase in brain BDNF content in mice at 24 hours post intravenous administration of bryostatin. The dose of bryostatin administered is reflected by the number above each bar, while the number within each bar indicates the number of consecutive weeks mice receive a single weekly dose of bryostatin. Control mice were injected with vehicle. BDNF content for each test group was calculated as percent of the corresponding control. BDNF was measured in mouse brain by ELISA 24 h after the last dose. (Mean±SEM, n=3 except Cage 24 n=2, 2-tailed t-test).
# Mouse studies were performed using bryostatin-i in accordance with the protocol described below. The following metrics were used to evaluate dosing regimens: induction of brain postsynaptic anchoring protein PSD-95, upregulation of BDNF levels in brain, minimal downregulation of PKC-ε levels, and elevation of brain and plasma concentrations of bryostatin. Groups of 2-3 mice were formed and housed in an approved research animal facility. Water was give ad libitum. A first study involved three groups of mice with animals in each group dosed weekly for 1, 2, 3, or 6 consecutive weeks. Each group had its own control group containing the same number of mice. In this study, mice in the first, second and third groups received an intravenous (i.v.) injection of 10 μg/m^2, 15 μg/m^2, and 25 μg/m^2 dose of bryostatin respectively. For each dose, mice in that group received a single injection of bryostatin weekly for predetermined number of consecutive weeks. Following dosing, mice were sacrificed and the blood and brain of each animal was collected for further analysis.
# C57B/6 male mice weighing between 19-21 grams were obtained from Charles River and housed in cages, 1 mouse/cage in a vivarium at the Blanchette Rockefeller Neurosciences institute. Animals were allowed access to water ad libitum.
# (§1) In these studies, bryostatin was administered intravenously (i.v.) by injection into the tail vein of a mouse. Stock solutions of bryostatin were prepared in dimethyl sulfoxide (DMSO). Prior to administration to a mouse, the stock DMSO solution of bryostatin was diluted to a predetermined concentration by dilution with phosphate buffered saline/saline (PBS/saline).
# Three different dosing regimens (injection schedules) were compared. The dosing regimens tested were weekly dosing, dosing every other week (alternating weeks), and spaced or intermittent dosing.
# (§2) The brain, whole blood, and plasma of mice in each dosing group as well as control mice was collected at 1 hour, 24 hours and 7 days after the last injection of bryostatin. PBMC's were isolated from blood and the brain, blood, plasma and PBMC's were frozen immediately using dry ice. Prior to analysis PBMC's were counted by diluting the sample (10 μl aliquot), 10-fold and the PBMC's counted using a Millipore Scepter cell counter. Every group of test animals had its own control group (N=3). Mice in the control group were injected with vehicle at a frequency similar to the dosing regimen and these animals were sacrificed and tested in parallel with mice in the test group.
# (§3) Each measurement was performed four times (X4). BDNF levels were measured using ELISA and the concentration of protein PSD-95 was measured by Western Blot. High performance liquid chromatography-mass spectral analysis was used to measure the concentration of bryostatin in blood and brain samples based on a standard curve. Total protein concentrations were measured Coomassie Plus (Bradford) Protein Assay kit.
# In this study, mice were administered 10 μg/m^2, 15 μg/m^2, and 25 μg/m^2 dose of bryostatin as a single injection once per week for the indicated number of consecutive weeks. […]
# [1] = Bryostatin levels in brain and plasma (HPLC-MS), crossing of blood-brain barrier; assay type: in vivo, mice; conditions: for bryostatin (% of Control), BRAIN: mouse brain; for bryostatin (% of Control), PLASMA: mouse plasma
# Procedure: FIG. 5 illustrates the steady state concentration of bryostatin in the brain and plasma of mice following intravenous administration at the indicated doses.
# Further evaluation was performed on bryostatin crossing the blood-brain-barrier (BBB) and the steady state levels of bryostatin in the brain and plasma of mice. […] The concentration of bryostatin in mice brain was less than its concentration in plasma.
# as §1, §2, §3
# The therapeutic efficacy of bryostatin depends at least in part on its ability to cross the blood-brain-barrier (BBB). To evaluate whether dosing regimen influences the bryostatin levels in brain, mice were administered the drug intravenously. Table 9 illustrates the effect of dose and dosing regimen on bryostatin levels in the brain and plasma of mice. Sporadic dosing increased the levels of bryostatin in brain compared to plasma. See data for mice in cages 9 and 11.
# [2] = cage 4: 25 μg/m^2 i.v. once weekly, 3 weeks, 24 h
# [3] = cage 6: 10 μg/m^2 i.v. once weekly, 3 weeks, 24 h
# [4] = cage 9: 25 μg/m^2 i.v., weeks 1 and 3, 24 h
# [5] = cage 11: 25 μg/m^2 i.v., weeks 1 and 2, 7 d delay
smiles,measurement,setting,value
CCC/C=C/C=C/C(=O)O[C@H]1/C(=C/C(=O)OC)C[C@H]2C[C@H]([C@@H](C)O)OC(=O)C[C@H](O)C[C@@H]3C[C@H](OC(C)=O)C(C)(C)[C@](O)(C[C@@H]4C/C(=C/C(=O)OC)C[C@H](/C=C/C(C)(C)[C@]1(O)O2)O4)O3 [Bryostatin-1],brain BDNF levels,"BDNF; mice, 10 μg/m^2 i.v., 3 or 6 consecutive weeks",did not result in elevated levels of brain BDNF
same,brain BDNF levels,"BDNF; mice, 15 μg/m^2, three consecutive weeks",some increase
same,brain BDNF levels,"BDNF; mice, 25 μg/m^2",maximum increase
same,brain BDNF,"BDNF; mice, 25 μg/m^2, 3 weekly doses, 3 weeks no dosing, 3 more weekly doses",remained elevated
same,BDNF (% of Control),"BDNF; cage 4: 25 μg/m^2 i.v. once weekly, 3 weeks",192.869 % of Control
same,BDNF (% of Control),"BDNF; cage 5: 25 μg/m^2 i.v., 3 on/3 off/3 on (9 weeks)",149.023 % of Control
same,BDNF (% of Control),"BDNF; cage 6: 10 μg/m^2 i.v. once weekly, 3 weeks",107.047 % of Control
same,BDNF (% of Control),"BDNF; cage 8: 10 μg/m^2 i.v. once weekly, 6 weeks",99.137 % of Control
same,BDNF (% of Control),"BDNF; cage 18: 15 μg/m^2 i.v. once weekly, 3 weeks",110.969 % of Control
same,BDNF (% of Control),BDNF; cage 22 (regimen not listed in Tables 2/3),133.142 % of Control
same,BDNF (% of Control),"BDNF; cage 24: 25 μg/m^2 i.v. once weekly, 2 weeks",135.095 % of Control
same,increase of bryostatin concentration in brain,"[1]; mice, 25 μg/m^2 weekly for three consecutive weeks versus 1 on/1 off or 2 on/1 off",less effective
same,crossing of the blood-brain-barrier,"[1]; mice, intravenous",crossed the BBB
same,plasma concentrations of bryostatin,"[1]; mice, single weekly injection for three consecutive weeks versus 1 on/1 off or 2 on/1 off",greater
same,levels of bryostatin in brain compared to plasma,"[1]; mice, sporadic dosing (cages 9 and 11)",increased
same,"bryostatin (% of Control), BRAIN",[1]; [2],0.0140 % of Control
same,"bryostatin (% of Control), BRAIN",[1]; [3],0.0202 % of Control
same,"bryostatin (% of Control), BRAIN",[1]; [4],0.0197 % of Control
same,"bryostatin (% of Control), BRAIN",[1]; [5],0.0217 % of Control
same,"bryostatin (% of Control), PLASMA",[1]; [2],0.0306 % of Control
same,"bryostatin (% of Control), PLASMA",[1]; [3],0.0287 % of Control
same,"bryostatin (% of Control), PLASMA",[1]; [4],0.0148 % of Control
same,"bryostatin (% of Control), PLASMA",[1]; [5],0.0012 % of Control

# Reference: patent US11173140B2, “Dosing regimens of PKC activators” (COGNITIVE RESEARCH ENTERPRISES, INC., priority 2015, dated 2021)
